Reference: patent US12685725B2, “Pridopidine for the treatment of mitochondrial-associated diseases and disorders and endoplasmic reticulum (ER) stress” (PRILENIA NEUROTHERAPEUTICS LTD., priority 2019, dated 2026)
Where two headings read alike, the source gives them in different places.

How the values were obtained:
[1] = tested on: Y128 neurons; settings: 5 μM given 24 h before 0.1 mM H2O2 for 6 h, p=0.001
Procedure: Mitochondrial membrane potential (Δψm) was assessed in cortical and striatal neurons using the positively changed fluorescent probe TMRM (tetramethylrhodamine methyl ester) (Thermo Fisher Sci., catalog no: T668) and in cortical/striatal co-cultures and lymphoblasts using an equivalent probe, TMRE (tetramethylrhodamine ethyl ester) (Abcam, catalog no. ab113852).
TMRE assay: Primary neurons and lymphoblasts in suspension were cultured in 6-well plates.

[2] = tested on: CHOP, GADD34, ATF6, XBP1s in cells expressing myc-Htt96Q or myc-Htt20Q
Procedure: Total cell RNA was extracted with TRIzol reagent (Invitrogen) according to the manufacturer's instructions. […] Real-time PCR was carried out using a CFX Connect Real-Time PCR Detection System (BioRad) and the amplifications were done using the SYBR Green PCR Master Mix (Cat.No. pb089617-100-1) (Pcrbio). Reactions were run in triplicates in three independent experiments. Housekeeping gene GAPDH was used as an internal control to normalize the variability of expression levels.
Cells were lysed in PBS containing 1% Triton X-100, 0.5% sodium deoxycholate with protease inhibitors and centrifuged to pellet insoluble aggregates, debris and nuclei. Phosphatase inhibitor cocktail 2 and 3 and 10 mM […] phosphate were added to the lysis buffer to inhibit phosphatases for detection of phosphorylated proteins. Supernatants were separated from pellets and incubated in loading buffer for 5 min at 100° C., pellets were incubated for 10 min at 100° C. After SDS-PAGE and transfer to nitrocellulose membrane, blocking was done in 5% low-fat milk and 0.1% Tween-20 in PBS for 1 h. Incubation with the primary antibody was overnight at 4° C. and after three washes in 0.1% Tween-20 in PBS, incubation with the appropriate secondary antibody was for 1 h at room temperature. After washing, enhanced chemiluminescence assay was performed and the membrane was exposed and quantified in a Bio-Rad ChemiDocXRS Imaging System (Bio-Rad, Hercules, CA).

[3] = tested on: Nrf2/ARE genes (Nqo1, Hmox1, GCLc) in HD lymphoblasts; settings: 5 μM, 24 h
Procedure: The qPCR was performed using the ABI Prism 7500 Sequence Detection System (Applied Biosystems). Each sample was run in triplicate. Gene expression was normalized to Rpl13a or UBC mRNA.

[4] = tested on: WT and YAC128 striatal neurons
Procedure: Briefly, plasmid was diluted in TE (in mM: 1 Tris-HCl pH 7.3, 1 mM EDTA), followed by the addition of CaCl2 (in mM: 2.5 CaCl2 in 10 HEPES, pH 7.2). The DNA solution was carefully added to 2×HEBS (in mM: 12 dextrose, 50 HEPES, 10 KCl, 280 NaCl and 1.5 Na2HPO4·2H2O, pH 7.2) while bubbling air through the solution. The mixture was then incubated for 25 min at room temperature. The precipitates were added dropwise to the coverslips in Neurobasal medium and incubated for 80 minutes at 37° C. The DNA-Ca^2+-phosphate precipitates were dissolved with freshly-made dissolution medium (Neurobasal medium with 20 mM HEPES, pH 6.8) and incubated for 7 min at room temperature. The transfected neurons were then washed with Neurobasal medium and transferred back to their original dishes containing conditioned culture medium until DIV12.
MitoDsRed-transfected striatal neurons were fixed with 4% paraformaldehyde (pre-warmed at 37° C.) for 20 minutes, permeabilized in 0.2% Triton X-100 in PBS for 2 minutes and blocked for 1 hour at room temperature in 3% (w/v) BSA in PBS. […] Confocal images were obtained as stacks, at 0.46 μm intervals along the z axis, using a Plan-Apochromat/1.4NA 63× lens on an Axio Observer.Z1 confocal microscope (Zeiss Microscopy, Germany) with Zeiss LSM 710 software. FIJI (ImageJ, National Institute of Health, USA) was used for image analysis. […] To optimally resolve individual mitochondria, a threshold was applied followed by the Analyze Particles function to trace mitochondrial outlines. For S1R and IP3R3 fluorescence, a threshold was set similarly to the one described above, and Integrated Density was obtained. S1R and IP3R3 Integrated Density was calculated inside of mitochondrial ROIs selection to obtain ER co-localization with mitochondria.

[5] = tested on: WT and YAC128 striatal neurons; settings: 1 μM, 24 h
Procedure: To obtain pure cortical and striatal neurons, tissue was micro-dissected in HBSS supplemented with 0.3% fatty acid free BSA (Sigma-Aldrich, catalog no: A8806). Tissue from embryos with the same genotype were pooled and digested with 0.003% trypsin in HBSS, then mechanically digested. […] (Sigma-Aldrich, catalog no: T9128) was used to block the trypsin. […] Cultures were incubated at 37° C. with 5% CO2. After 3 days in vitro (DIV) half of the medium was replaced with fresh supplemented Neurobasal medium containing 5-fluoro-2′-deoxyuridine (5-FdU, 5 μM final concentration in the medium; Sigma-Aldrich, catalog no: F0503) to reduce dividing non-neuronal cells. At DIV 7 half of the medium was again replaced with fresh, and cells were used at DIV12.
The ultrathin sections were prepared using Leica Ultracut UCT (Leica, Vienna, Austria) and contrasted with uranyl acetate and lead citrate. […] All mitochondria of 6-7 different cells were snapped per condition and per independent experiment. Number of mitochondria-ER contacts sites (MERCS), MERCS length, ER and mitochondria profile areas, ER width and mitochondria aspect ratio (the ratio between the major and minor axes of mitochondria) were quantified. Number of MERCS per mitochondria was obtained by dividing number of MERCS per number of mitochondria profiles. Percentage of mitochondria surface covered by ER was measured by dividing the MERCS length by mitochondria perimeter and multiplying by 100. MERCS were considered when the distance between ER and mitochondria <40 nm.

[6] = cells expressing mutant Htt96Q, 48 h
[7] = YAC128 striatal neurons, 1 μM, 24 h
[8] = YAC128 striatal neurons, p<0.0001

CCCN1CCC(c2cccc(S(C)(=O)=O)c2)CC1 [Pridopidine, 4-[3-(methylsulfonyl)phenyl]-1-propyl-piperidine]
H2O2-induced loss of MMP (TMRE) [1]: completely reverts this H2O2-induced loss of MMP
reduction in ATF6 fragment ([2]; Htt96Q-expressing cells, 3 μM): 35%
reduction in XBP-1s mRNA (IRE1 pathway) ([2]; Htt96Q-expressing cells, 3 μM): 25%
CHOP and GADD34 levels ([2]; cells expressing Htt20Q): does not affect these factors
reduction of CHOP levels [2, 6]: 2.5 fold
reduction of GADD34 levels [2, 6]: 7 fold
GCLc expression (mRNA) [3]: shows a trend towards upregulation
expression of Nqo1 (mRNA) ([3]; p=0.0010): significantly upregulates
expression of Hmox1 (mRNA) ([3]; p=0.0308): significantly upregulates
S1R co-localization with mitochondria ([4]; Y128 neurons, 1 μM, 24 h, p<0.0001): increase in IP3R and S1R co-localization with mitochondria
IP3R co-localization with mitochondria ([4]; Y128 neurons, 1 μM, 24 h, p=0.0001): increase in IP3R and S1R co-localization with mitochondria
total S1R protein levels ([4]; Y128 striatal neurons): restores S1R levels to WT levels
S1R total levels in neurites [4, 7]: significantly increases S1R levels
S1R total levels in soma [4, 7]: significantly increases S1R levels
percent of mitochondrial surface in contact with ER ([5]; WT neurons, p=0.0339): significantly increases the percent of mitochondrial surface in contact with ER
proportion of elongated mitochondria (aspect ratio) ([5]; Y128 striatal neurons, p=0.0044): increases the proportion of elongated mitochondria in Y128 striatal neurons to WT levels
ER width ([5]; YAC128 neurons, p<0.0001): restores the abnormal ER width
number of MERCS per mitochondria [5, 8]: increasing the number of MERCS per mitochondria
percent of mitochondrial surface in contact with ER [5, 8]: increasing the number of MERCS per mitochondria and the percent of mitochondrial surface in contact with ER
